From US6552059B2, “Pharmaceutical composition for and method of treating leukemia” (priority 1995, dated 2003)
Where two headings read alike, the source gives them in different places.

How the values were obtained:
leukemia (P388SS) = type: in vivo, mouse; conditions: for % increase in survival time versus nontreated control: control = 100
Method: In an in vivo mouse study for leukemia (P388SS), carbendazim (2-carbonylaminobenzimidazole) was tested in combination with griseofulvin.

leukemia (P338) = type: in vivo; conditions: ten mice; for mean number of survival days: dosed 5 days, off 2, dosed 5, off 3
Method: Mice were randomly selected and divided into five groups of ten mice each: Group 1—a control group receiving canola oil but no drug treatment; Group 2—a treatment group receiving 125 mg of cytoxan (2-bis(2-chloroethyl)-amino-1-oxo-2-aza-5-oxophosphoridin) per kg of body weight; Group 3—a treatment group receiving 4000 mg of carbendazim per kg of body weight; Group 4—a treatment group receiving 2500 mg of carbendazim per kg of body weight; and Group 5—a treatment group receiving 1000 mg of carbendazim per kg of body weight. The five groups were infected with leukemia (P338). The diseased animals were dosed for five days, off two days, dosed again for another five days and off again for three days.

**Q.** What does the source list for `COC1=CC(=O)C[C@@H](C)[C@]12Oc1c(Cl)c(OC)cc(OC)c1C2=O` [Griseofulvin]?
**A.** % increase in survival time versus nontreated control (leukemia (P388SS); griseofulvin 3000 mg/kg, carbendazim 0 mg/kg): 130%; % increase in survival time versus nontreated control (leukemia (P388SS); griseofulvin 4000 mg/kg, carbendazim 0 mg/kg): 165%; % increase in survival time versus nontreated control (leukemia (P388SS); griseofulvin 5000 mg/kg, carbendazim 0 mg/kg): 213%

**Q.** Which “mean number of survival days” value (leukemia (P338); Group 3, 4000 mg carbendazim per kg, after infection with leukemia) does the source give for `COC(=O)Nc1nc2ccccc2[nH]1` [carbendazim, 2-(methoxycarbonylamino)benzimidzole] here?
**A.** 17.3 days

**Q.** And the “mean number of survival days” value (leukemia (P338); Group 4, 2500 mg carbendazim per kg)?
**A.** 16.5 days

**Q.** And the “mean number of survival days” value (leukemia (P338); Group 5, 1000 mg carbendazim per kg)?
**A.** 14.1 days

**Q.** What about the “% increase in survival time versus nontreated control” value (“% increase” for short) (leukemia (P388SS); griseofulvin 0 mg/kg, carbendazim 1000 mg/kg) of the same compound?
**A.** 153%

**Q.** What about the “% increase” value (leukemia (P388SS); griseofulvin 0 mg/kg, carbendazim 2000 mg/kg) of the same compound?
**A.** 190%

**Q.** And the “% increase” value (leukemia (P388SS); griseofulvin 0 mg/kg, carbendazim 3000 mg/kg)?
**A.** 176%

**Q.** `O=P1(N(CCCl)CCCl)NCCCO1` (centres unmarked) [cytoxan, 2-bis(2-chloroethyl)-amino-1-oxo-2-aza-5-oxophosphoridin, reference compound] was tested. Which “deaths after infection with leukemia” value (leukemia (P338); Group 2, 125 mg cytoxan per kg, up to twenty one days after infection) did it give?
**A.** none died

**Q.** What about the “deaths during the test period” value (leukemia (P388SS); positive control, 300 mg/kg (qdx1)) of the same compound?
**A.** no deaths
